From patent US9174988B2, “Small molecule inhibitors of hepatitis C virus” (TRUSTEES OF BOSTON UNIVERSITY, priority 2009, dated 2015)
Where two headings read alike, the source gives them in different places.

How the values were obtained:
[1] = biological target: T1, core106 (HCV core protein domain) dimerization (Hepatitis C virus genotype 1a, UniProt P27958); assay: Core106 ALPHA screen (AlphaScreen) core dimerization assay; type: binding; conditions: for inhibition of core dimerization (in words): level of activity in words, partly relative to 16
T1 construct: a core106 protein domain was tagged with either Glutathione-S-transferase (GST) tag or a Flag peptide tag
T1 sequence (P27958 2-106): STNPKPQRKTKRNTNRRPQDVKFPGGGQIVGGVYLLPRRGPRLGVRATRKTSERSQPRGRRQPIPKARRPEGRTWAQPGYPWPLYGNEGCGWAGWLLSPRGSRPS
Procedure: FIG. 16b is a dose-response analysis of compound 1 (SL201). Core106 ALPHA screen assay was used for the dose-response analyses. The compound was dosed from 0 to 100 μM. The IC50 was calculated using a non-linear regression ‘Log (inhibitor) versus response’ with four points for each concentration.
Core106 ALPHA screen assay was used for the dose response analyses. The compounds were dosed from 0 to 100 μM. The IC50 were calculated using a nonlinear regression “Log (inhibitor) vs. response” with 4 points for each concentration. The difference in IC50 for compound 1 (SL201) is due to the using two different lots of SL201 and the values are within experimental error.
This assay employed the AlphaScreen® technology, a secondary Amplified Luminescent Proximity Homogeneous Assay as described in Kota, et al, J. Gen Virol. (2009) 90: 1319-1328, content of which is herein incorporated by reference. AlphaScreen is based on the use of photoactive donor and acceptor beads that recognize specific tags on interacting proteins (Peppard, 2003). Core106 dimerization was confirmed using AlphaScreen technology in which a core106 protein domain was tagged with either Glutathione-S-transferase (GST) tag or a Flag peptide tag. The untagged core106 protein domain was used as a model competitor in the assay. The proteins were diluted to working concentrations in ‘protein buffer’ (100 mM HEPES pH 7.5, 1 mM EDTA, 5 mM DTT, 0.1% CHAPS, 10% glycerol). The donor and acceptor beads were diluted to working concentrations in ‘bead buffer’ (20 mM HEPES pH7.5, 125 mM NaCl, 0.1% BSA, 0.1% CHAPS). GST-tagged core106 (150 nM) was incubated with 150 nM of Flag-tagged core106 for 1 h at room temperature. Anti-Flag acceptor beads (Perkin Elmer Lifesciences) were added to the proteins at a final concentration of 20 μg/ml and incubated for 1 h at room temperature. Then, Glutathione donor beads (Perkin Elmer Lifesciences) were added to the proteins at a final concentration of 20 μg/ml and incubated for 1 h. The assays were executed in a white 384 well Packard opti plate (Perkin Elmer Lifesciences) and were read on Perkin Elmer Envision.
Uninhibited or 0% inhibition control is defined as wells containing only GST-core106 and Flag-core106. 100% inhibition control is defined as wells containing GST-core106 and Flag-core106 with core106 as an inhibitor. Test compound is wherein the test compound is analyzed.
Compounds were tested in triplicate in a 10-point series starting at a nominal test concentration of 50 nM. For each test compound, percent inhibition was plotted against compound concentration. A four parameter equation describing a sigmoidal dose-response curve was plotted using GraphPad Prism® (GraphPad Software Inc). The reported IC50 values were generated from fitted curves by solving for the X-intercept value at the 50% inhibition level of the Y-intercept value.

[2] = XTT cytotoxicity assay (CC50); type: cell-based; conditions: human, CC50
Source text: (§1) This assay utilized the compound XTT (2,3-bis[2-methoxy-4-nitro-5-sulfophenyl]-2H-tetrazolium-5-carboxyanilide inner salt) with addition of an electron coupling agent phenazine methosulfate (PMS) to measure mitochondrial dehydrogenases activity in living cells, e.g., Huh-7.5 cells. Dehydrogenases in mitochondria of living cells cleave the tetrazolium ring of XTT changing the color of the solution from clear to orange. As designed, compounds that reduce cell viability will reduce activity of the mitochondrial dehydrogenases, and leave a decreased orange color in solution.
(§2) The Huh-7.5 cell line was routinely cultured in 15-cm dishes at 37 degrees C. and 95% relative humidity (RH). The growth media consisted of DMEM supplemented with 10% v/v certified fetal bovine serum, 4 mM L-glutamine, 1 mM sodium pyruvate, 1× antibiotic mix (penicillin, streptomycin, and glutamine), and 1× non-essential amino acids.
(§3) Prior to the start of the assay 8000 cells in 100 microliter volume of colorless growth media were dispensed into each well of 96-well tissue culture-treated microtiter plates and incubated overnight at 37 degrees C. (5% CO2, 95% RH) to allow cells to adhere to the plate. The next day, 100 microliter of test compound in DMSO (1.25% final DMSO concentration) and DMSO only were added to wells. Wells with only test compound in media without cells were used to normalize the data (to account for the color a test compound may have). Next, the plates were incubated for 72 hours at 37 degrees C. (5% CO2, 95% RH). Solution of XTT-PMS was prepared in 1×PBS and added to the cells in 50 microliter volume to each well and incubated for 4 hours at 37 degrees C. (5% CO2, 95% RH). After equilibrating the plates to room temperature for 10 minutes, optical density at 450 nm and […] was measured on Biotek plate reader.
(§4) The percent inhibition for each compound was calculated as follows: % Inhibition=((DMSO Control−Test compound)/DMSO Control)*100, wherein Test compound is defined as wells containing test compound.
(§5) Compounds were tested in triplicate in a 7-point 1:3 dilution series starting at a nominal test concentration of 320 micromolar. For each test compound, percent inhibition was plotted against compound concentration. A four parameter equation describing a sigmoidal dose-response curve was then fitted with adjustable baseline using MicroSoft Excel software. The reported CC50 values were generated from fitted curves by solving for the X-intercept value at the 50% inhibition level of the Y-intercept value.

Huh-7.5 cells = assay: XTT cytotoxicity assay (CC50); type: cell-based; conditions: human, 72 h
Source text: as §1, §2, §3, §4, §5

HCV 2a J6/JFH-1 = assay: HCV infectivity assay by real-time RT-PCR of HCV RNA (EC50 at T1 and T2); type: cell-based, hepatitis C virus; conditions: for EC50's (stage not specified): HCV 2a strain J6/JFH-1 in hepatoma cells; for EC50: Hepatitis C virus
Procedure: In this assay HCV infectivity is measured using real-time RT-PCR to monitor changes in expression of HCV 2a J6/JFH-1 RNA. Cells are incubated with test compound in the presence of HCV, followed by isolation of RNA, conversion to cDNA, and Taqman-based QPCR. As designed, a compound that inhibits HCV infectivity will reduce HCV RNA expression, leading to decreased production of the PCR amplicon, thereby reducing fluorescence, and increasing Ct.
Huh-7.5 cells were plated the day before the assay. After allowing the cells to adhere overnight, test compound was prepared in HCV supernatant by making 1:10 serial dilutions from 100 micromolar down to 0.001 micromolar. Doses of test compound in virus were added to cells and incubated for 24 hours. The next day, cell culture media was removed from each well and replaced with same dilutions of compound in complete media were added to cells and incubated for another 48 hours for T1 timepoint. Then cells were lysed and RNA was isolated using the RNeasy kit (QIAGEN, Valencia, Calif.). Supernatant from T1 was transferred to fresh naïve cells and incubated for 24 hours. Culture media were removed from cells and replaced with complete media and incubated for 48 hours for T2 timepoint. Cells for T2 timepoint were lysed and RNA was isolated using the RNeasy kit (QIAGEN, Valencia, Calif.). DNA was generated using the Taqman reverse transcription kit (Applied Biosystems, Foster City, Calif.). Quantitative real-time polymerase chain reaction (PCR) was performed in triplicate using LightCycler RNA Amplification Kit HybProbe master mix (Roche) with Taqman MGB Probe 6FAM-[…]-MGBNFQ on a model LightCycler480 real time PCR system (Roche). Data are expressed as the mean fold change plus or minus SE of 3 replicates normalized to 100 ug total RNA. Primers used were forward […] and reverse […]. The range of activity was normalized based on measurement of total RNA. Compounds were tested in triplicate in a 6-point 1:10 dilution series starting at a nominal test concentration of 100 micromolar.
The compounds were then studied in the same Huh7-5 cells infected with HCV 2a strain J6/JFH-1 (Kota, et al., ASSAY Drug Dev. Tech (2009) 8: 96). Huh-7.5 hepatoma cells were electroporated with RNA from HCV and the 72-hour supernatant was used as a source of infectious virus. This supernatant was combined with compounds identified as inhibitors of core dimerization. Two stages of infection were studied: early stage (T1), corresponding to the initial 72-hour culture of naïve cells infected in the presence of the inhibitor, and late stage (T2), corresponding to the second 72-hour passage through naïve cells. HCV RNA detected in T1 results from actual viral infection and replication. HCV RNA detected in T2 results from infectious virus secreted in T1 and replicated in freshly infected naïve cells. Real-time reverse-transcriptase PCR was done on RNA extracted and purified from the cells treated with increasing concentrations (0.001-100 μM) of each of the compounds. […] For comparative purposes, data for BILN2061a known inhibitor of the NS3/NS4A protease (Lamarre, et al., Nature (2003) 426: 186), is included.

[3] = inhibition of core dimerization, Table 3, read-out: IC50
[4] = inhibition of core dimerization, see FIG. 17, Table 2, read-out: IC50
[5] = Huh7.5, read-out: HCV2a J6/JFH-1 T1-EC50
[6] = Huh7.5, read-out: HCV2a J6/JFH-1 T2-EC50
[7] = AlphaScreen, read-out: IC50 for inhibition of core dimerization

SMILES	IC50 [1, 3]	IC50 [1, 4]	CC50 at 72 h [2]	CC50 (Huh-7.5 cells)	EC50's (stage not specified) (HCV 2a J6/JFH-1)	EC50 (HCV 2a J6/JFH-1; [5])	EC50 (HCV 2a J6/JFH-1; [6])	EC50 (HCV 2a J6/JFH-1; read-out: HCV 2A T1 - EC50)	EC50 (HCV 2a J6/JFH-1; read-out: HCV 2A T2 - EC50)	IC50 [1, 7]	inhibition of core dimerization (in words) [1]
CC#CCN1c2ccccc2[C@]23CCC(=O)N(CCOC)C2=NC(C(=O)OC)=C(C(=O)OC)C13 (mixture of isomers) [Compound 15]	2 µM	2 µM	> 320 µM	> 320 µM	single digit	4.9 µM	0.7 µM	4.9 µM	0.7 µM		
C=CCN1c2ccccc2[C@]23CCC(=O)N(Cc4ccccc4)C2=NC(C(=O)OC)=C(C(=O)OC)C13 (mixture of isomers) [Compound 16]	1.4 µM	1.4 µM	127 µM	127 µM	single digit	2.3 µM	3.2 µM	2.3 µM	3.2 µM	1.4 µM	
C=CCN1c2ccccc2[C@]23CCC(=O)N(Cc4cc(OC)c(OC)c(OC)c4)C2=NC(C(=O)OC)=C(C(=O)OC)C13 (mixture of isomers) [Compound 17]	2 µM	2 µM	5.3 µM			3.8 µM	3 µM	3.8 µM	3 µM		
COC(=O)C1=C(C(=O)OC)C2N(C)c3ccc(OC)cc3[C@@]23C[C@@H](C(=O)OC)N(C(=O)CC(C)C)C3=N1 (single isomer, unassigned) [Compound 1]	9.3 µM	9.3 µM	> 320 µM	> 320 µM		14.8 µM	22.2 µM	8.8 µM	8.1 µM	5.7 µM	
COc1ccc2c(O[C@@H]3C[C@H]4C(=O)N[C@]5(C(=O)O)C[C@H]5/C=C\CCCCC[C@H](NC(=O)OC5CCCC5)C(=O)N4C3)cc(-c3csc(NC(C)C)n3)nc2c1 [BILN2061, reference compound]			5.3 µM			0.072 µM	0.071 µM				
COC(=O)[C@@H]1C[C@@]23C(=NC(c4ccc([N+](=O)[O-])cc4)=C(C(F)(F)F)C2N(C)c2ccccc23)N1C(C)=O (some centres unmarked) [Compound 22a]			310 µM					1.3 µM	0.9 µM	5.6 µM	
COC(=O)C1=C(C(=O)OC)C2N(CCCCCn3cc(-c4ccc(OC)cc4C)nn3)c3ccccc3[C@@]23CCC(=O)N(Cc2ccccc2)C3=N1 (some centres unmarked) [Compound 27]			> 100 µM					1.4 µM	1.1 µM	0.092 µM	sub-micromolar
COC(=O)C1=C(C(=O)OC)C2N(CCCCCn3cc(CNC(C)=O)nn3)c3ccccc3[C@@]23CCC(=O)N(Cc2ccccc2)C3=N1 (some centres unmarked) [Compound 28]	0.341 µM		150 µM					26.2 µM	56.2 µM		sub-micromolar
COC(=O)C1=C(C(=O)OC)C(NCCCN2c3ccccc3[C@]34CCC(=O)N(Cc5ccccc5)C3=NC(C(=O)OC)=C(C(=O)OC)C24)[C@@]2(c3ccccc3)CCC(=O)N(Cc3ccccc3)C2=N1 (some centres unmarked) [SL235]	2.9 µM		> 36 µM					0.088 µM	0.735 µM		
